Laboratory results taken from patent US4877792A, “Heteroaryloxy-beta-carboline derivatives, their preparation and their use as medicinal agents” (Schering Aktiengesellschaft, priority 1986, dated 1989).

Tests used:
[1] = target: benzodiazepine receptors; assay: displacement of 3H-flunitrazepam binding, in vitro (rat brain membranes); conditions: 3H-flunitrazepam 1.0 nM, 0° C.
[2] = 4-plate assay, anxiolytic activity (Boissier et al.); type: in vivo; conditions: Mus musculus, ip; minimum lowest dose which increases locomotor activity of punished mice; i.p.; read-out: Anxiolytic Activity MED
Protocol: The compounds of this invention display especially anxiolytic and anticonvulsive activities. In order to study the anxiolytic effect, the compounds were tested in the 4-plate assay according to the method by Boissier et al., Eur. J. Pharmacol. 4:145-150 ([…]). The table indicates the minimum lowest dose (MED) which increases the locomotor activity of the punished mice after i.p. treatment.

[3] = tested on: benzodiazepine receptor; assay: inhibition of 3H-flunitrazepam binding in live brain, in vivo (mice); conditions: normally i.p., 3H-flunitrazepam i.v. after 15 min

SMILES	Inhibition of 3H-Flunitrazepam Binding IC50 in vitro [1] [ng/mL]	minimal effective dose [2] [mg/kg]	Inhibition of 3H-Flunitrazepam Binding ED50 in vivo [3] [mg/kg]
COCc1c(C(=O)OC(C)C)ncc2[nH]c3ccc(Oc4ccc(Br)cn4)cc3c12	0.75	3.13	2.7
CCc1noc(-c2cc3c(cn2)[nH]c2cccc(Oc4ncccn4)c23)n1	0.28	3.13	2.8
